Broadly, the IC50 is the concentration needed to halve the response being measured. Read a low IC50 as higher potency.

This assay addresses PI3Kβ (Homo sapiens (Human), UniProt P42338). The assay can be described thus: In vitro enzyme inhibition assay (Kinase Glo based enzyme activity assay). Particulars: Test (a), Table A. In kind it is biochemical. How it is done: (a) In Vitro Enzyme Inhibition Assay
The inhibition of PI3Kβ, PI3Kα, PI3Kγ and PI3Kδ was evaluated in a Kinase Glo based enzyme activity assay using human recombinant enzymes. The assay measures depletion of ATP after incubation with enzyme, PIP2 and ATP plus compound. ATP at the end of the reaction is detected by addition of Kinase Glo reagent, in this the Ultra Glo™ luciferase (Promega) uses the ATP as a substrate to catalyze the mono-oxygenation of luciferin and the generation of light. A direct relationship exists between the luminescence measured with the Kinase-Glo Plus Reagent and the amount of ATP remaining in a completed kinase reaction and luminescence is inversely related to kinase activity.
Compounds in 100% DMSO were added to assay plates by acoustic dispensing. PI3Kβ was added in a Tris buffer (50 mM Tris pH7.4, 0.05% CHAPS, 2.1 mM DTT, and 10 mM MgCl2) and allowed to preincubate with compound for 20 minutes prior to addition of substrate solution containing PIP2 and ATP. The enzyme reaction was stopped after 80 minutes by the addition of Kinase Glo detection solution. Plates were left for 30 minutes at room temperature then read on a Pherastar Instrument (Luminescence ATP 384 program) setting gain on max well. […]
IC50 values were calculated using a log curve fitting to a non-linear regression package, fitting raw data to inhibitor concentration.

Chain of PI3Kβ (P42338 whole entry): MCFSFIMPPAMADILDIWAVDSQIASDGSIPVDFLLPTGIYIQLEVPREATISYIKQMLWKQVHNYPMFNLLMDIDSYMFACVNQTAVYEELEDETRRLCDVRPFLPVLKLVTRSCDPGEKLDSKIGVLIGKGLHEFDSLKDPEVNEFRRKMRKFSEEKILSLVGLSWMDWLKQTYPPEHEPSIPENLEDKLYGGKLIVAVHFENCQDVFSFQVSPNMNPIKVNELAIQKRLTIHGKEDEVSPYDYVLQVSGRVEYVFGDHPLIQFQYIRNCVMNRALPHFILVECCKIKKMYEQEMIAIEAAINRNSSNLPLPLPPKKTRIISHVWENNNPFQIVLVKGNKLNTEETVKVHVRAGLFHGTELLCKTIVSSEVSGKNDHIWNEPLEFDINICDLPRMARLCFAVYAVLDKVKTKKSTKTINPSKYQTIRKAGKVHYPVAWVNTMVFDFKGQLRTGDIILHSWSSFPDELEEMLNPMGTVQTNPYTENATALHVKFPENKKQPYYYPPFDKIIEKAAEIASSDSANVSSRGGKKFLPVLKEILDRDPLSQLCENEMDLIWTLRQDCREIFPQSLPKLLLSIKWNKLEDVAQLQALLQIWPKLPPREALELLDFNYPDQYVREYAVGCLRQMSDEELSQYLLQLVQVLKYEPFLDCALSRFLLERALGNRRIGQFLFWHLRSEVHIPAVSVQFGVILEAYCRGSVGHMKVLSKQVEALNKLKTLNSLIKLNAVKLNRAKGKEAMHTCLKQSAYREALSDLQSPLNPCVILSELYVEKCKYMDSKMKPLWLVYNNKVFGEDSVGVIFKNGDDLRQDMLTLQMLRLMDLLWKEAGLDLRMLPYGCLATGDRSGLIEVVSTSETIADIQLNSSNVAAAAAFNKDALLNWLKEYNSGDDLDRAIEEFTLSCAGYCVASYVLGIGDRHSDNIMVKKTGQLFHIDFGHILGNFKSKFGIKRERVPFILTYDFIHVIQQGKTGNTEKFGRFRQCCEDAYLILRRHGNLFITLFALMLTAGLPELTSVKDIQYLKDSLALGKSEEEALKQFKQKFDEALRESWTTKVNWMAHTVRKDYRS
Chain of PI3Kβ (P27986 whole entry partner): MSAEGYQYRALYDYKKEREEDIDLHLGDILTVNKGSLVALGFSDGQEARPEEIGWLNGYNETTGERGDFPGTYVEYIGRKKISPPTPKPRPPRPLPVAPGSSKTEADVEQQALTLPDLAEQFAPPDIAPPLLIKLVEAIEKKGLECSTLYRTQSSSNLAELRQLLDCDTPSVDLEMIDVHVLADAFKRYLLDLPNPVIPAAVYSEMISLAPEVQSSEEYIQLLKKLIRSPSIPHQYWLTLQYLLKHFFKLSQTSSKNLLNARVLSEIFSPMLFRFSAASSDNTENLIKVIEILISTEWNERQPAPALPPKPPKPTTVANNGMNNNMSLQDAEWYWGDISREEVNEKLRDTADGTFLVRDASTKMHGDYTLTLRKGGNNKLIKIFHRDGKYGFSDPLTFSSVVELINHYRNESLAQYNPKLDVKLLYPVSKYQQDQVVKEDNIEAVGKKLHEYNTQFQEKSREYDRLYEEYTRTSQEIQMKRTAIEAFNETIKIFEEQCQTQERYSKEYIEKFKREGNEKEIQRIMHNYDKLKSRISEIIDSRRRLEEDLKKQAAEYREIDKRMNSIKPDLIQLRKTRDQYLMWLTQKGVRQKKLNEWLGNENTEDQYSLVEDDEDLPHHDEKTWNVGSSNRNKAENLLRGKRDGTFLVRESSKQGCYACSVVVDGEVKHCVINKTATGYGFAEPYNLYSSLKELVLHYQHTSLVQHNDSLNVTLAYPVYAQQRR

The molecule `CC(c1cc(C(=O)NCCN(C)C)cc2c(=O)cc(N3CCOCC3)oc12)N(C)c1ccc(F)c(F)c1` (stereo not shown) [Example 3.01, 8-(1-((3,4-difluorophenyl)(methyl)amino)ethyl)-N-(2-(dimethylamino)ethyl)-2-morpholino-4-oxo-4H-chromene-6-carboxamide] had an IC50 of 6 nM.
